Like-named read-outs stand apart in the source and are kept apart here.
Experiments:
[1] = molecular target: T1, CCK-A (Rattus norvegicus, UniProt P30551); assay: Peripheral receptor (CCK-A) binding experiment, [^3 H]-CCK-8 binding inhibition; details: for CCK-B/CCK-A: ratio of IC50 values CCK-B/CCK-A (selectivity for CCK-A), 60 min
T1 construct: CCK-A receptors prepared from the cell membranes of rat pancreas; from tissue; host or cells: rat pancreas membranes (male rats, Japan Laboratory Animals)
T1 sequence (P30551 1-444): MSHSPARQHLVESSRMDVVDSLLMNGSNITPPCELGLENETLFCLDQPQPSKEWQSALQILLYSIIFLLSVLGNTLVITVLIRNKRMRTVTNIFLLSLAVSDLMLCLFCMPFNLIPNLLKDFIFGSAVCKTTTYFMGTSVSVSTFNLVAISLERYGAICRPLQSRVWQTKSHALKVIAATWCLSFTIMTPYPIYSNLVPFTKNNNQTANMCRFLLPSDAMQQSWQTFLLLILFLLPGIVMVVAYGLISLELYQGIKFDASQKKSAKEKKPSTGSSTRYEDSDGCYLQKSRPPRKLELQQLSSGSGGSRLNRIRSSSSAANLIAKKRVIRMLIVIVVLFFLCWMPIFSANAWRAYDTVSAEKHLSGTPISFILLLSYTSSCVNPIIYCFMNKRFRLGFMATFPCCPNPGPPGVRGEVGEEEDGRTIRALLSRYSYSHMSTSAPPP
Method: (§1) Peripheral Receptor (CCK-A) and Central Receptor (CCK-B) Binding Experiment
(§2) The pancreas and cerebrum of male rats (Japan Laboratory Animals), which were sacrificed by decapitation and having body weights of 250-300 g, were extracted and immersed in cold Hepes buffer. After suspending these tissues using a Potter homogenizer, the suspension was centrifuged for 10 minutes at 48,000×g. The resulting residue was again suspended by addition of cold Hepes buffer and centrifuged for 10 minutes at 48,000×g. The resulting residue was transferred to cold incubation buffer.
(§3) A 1 ml aliquot of the homogenate was incubated for 60 minutes at 25° C. in the presence of 0.2 nM [^3 H]-CCK-8 and the test compound, in the presence of vehicle only (for measurement of 100% binding), or in the presence of 1 μM cold CCK-8 (for measurement of non-specific binding). Next, the reaction solution was promptly suction filtered using a Whatman glass GF/B filter immersed in Hepes buffer followed by washing the filter with cold Hepes buffer. Next, the glass filter was placed in Aquasol-2 followed by assay of radioactivity with a liquid scintillation counter.
(§4) The compound numbers shown in Table 3 indicate the target compounds according to the number of the embodiment.

[2] = molecular target: T2, CCK-B (Rattus norvegicus, UniProt P30553); assay: Central receptor (CCK-B) binding experiment, [^3 H]-CCK-8 binding inhibition; details: rat cerebrum homogenate, 0.2 nM [^3 H]-CCK-8, 60 minutes at 25° C
T2 construct: CCK-B receptors originating in the cell membrane of rat brain cells; from tissue; host or cells: rat cerebrum membranes (male rats, Japan Laboratory Animals)
T2 sequence (P30553 1-452): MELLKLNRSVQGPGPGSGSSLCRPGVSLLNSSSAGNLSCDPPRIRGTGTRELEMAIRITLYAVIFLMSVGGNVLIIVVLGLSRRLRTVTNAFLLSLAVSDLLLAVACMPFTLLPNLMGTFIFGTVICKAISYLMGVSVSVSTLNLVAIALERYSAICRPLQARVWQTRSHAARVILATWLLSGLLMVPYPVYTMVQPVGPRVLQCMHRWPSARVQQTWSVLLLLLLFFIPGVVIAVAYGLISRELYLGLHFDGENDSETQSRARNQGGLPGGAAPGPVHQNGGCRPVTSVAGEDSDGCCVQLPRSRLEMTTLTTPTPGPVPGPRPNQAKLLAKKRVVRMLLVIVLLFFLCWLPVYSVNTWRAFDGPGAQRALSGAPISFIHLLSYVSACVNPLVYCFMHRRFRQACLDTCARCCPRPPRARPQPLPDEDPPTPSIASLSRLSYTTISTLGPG
Method: as §1, §2, §3, §4

[3] = system: extracted guinea pig ileum; assay: Anti-CCK action in extracted guinea pig ileum (inhibition of CCK-8-induced contraction, Magnus tube); parameters: species or system guinea pig (Hartley strain, male); details: Cavia porcellus; contraction by 1×10^-8 M CCK-8, test compound added 5 minutes before; extracted ileum, 37° C; read-out: Active IC50
Method: Anti-cholecystokinin (CCK) Action in Extracted Guinea Pig Ileum After sacrificing a male guinea pig (Hartley strain) by striking and exsanguination, a piece of extracted ileum was suspended from a Magnus tube, while applying tension of 0.5 g, containing 30 ml of Tyrode's solution (NaCl 136.9 mM, KCl 2.68 mM, CaCl2 1.8 mM, MgCl2 1.05 mM, NaH2 PO4 0.42 mM, NaHCO3 11.9 mM and glucose 5.55 mM) and ventilated with mixed O2 gas containing 5% CO2 at 37° C. Changes in contraction were recorded on smoked paper for isotonicity via a bevel. The piece of ileum was allowed to stand undisturbed for 30 minutes and then contracted by addition 1×10^-8 M CCK-8. After washing, this was repeated several times. After the contraction by CCK-8 had stabilized, the test compound was added. Contraction resulting from addition of 1×10^-8 M CCK was then measured 5 minutes later. The contraction caused by CCK-8 and the contraction caused by CCK-8 in the presence of the test compound at varying concentrations were compared, and the resulting IC50 values (concentration of test substance at which contraction caused by CCK-8 is inhibited by 50%) are shown in Table 2. The compound numbers shown in Table 2 indicate the target compounds according to the numbers of the embodiments.

[4] = rat pancreas homogenate, 0.2 nM [^3 H]-CCK-8, 60 minutes at 25° C, read-out: CCK-A IC50
[5] = rat pancreas cell membranes, read-out: activity in binding experiment on CCK-A receptors prepared from the cell membranes of rat pancreas

| IC50 [1, 4] [µM] | CCK-B/CCK-A [1] | IC50 [2] [µM] | IC50 [1, 5] [µM] | SMILES | IC50 [3] [µM] |
| --- | --- | --- | --- | --- | --- |
| 0.016 | 625 | 10 |  | O=C(N[C@@H](CCc1ocnc1C(=O)O)C(=O)N1CCN(C(c2ccccc2)c2ccccc2)CC1)c1cc2ccccc2[nH]1 [Compound 26-5, (S)-1-[4-(4-carboxyoxazol-5-yl)-2-(indol-2-yl)carbonylamino]butyryl-4-diphenylmethylpiperazine] | 0.017 |
| 0.17 | 588 | 100 |  | CCCCC(CCCC)N1CCN(C(=O)[C@H](CSc2ncccc2C(=O)O)NC(=O)c2cc3ccccc3[nH]2)CC1 [Compound 14-5, (R)-1-[3-(3-carboxypyridin-2-yl)thio-2-(indol-2-yl)carbonylamino]propionyl-4-(1-butylpentyl)piperazine] | 0.26 |
| 0.18 | 53 | 9.6 |  | O=C(N[C@@H](Cc1ocnc1C(=O)O)C(=O)N1CCN(C(c2ccccc2)c2ccccc2)CC1)c1cc2ccccc2[nH]1 [Compound 27-5, (S)-1-[3-(4-carboxyoxazol-5-yl)-2-(indol-2-yl)carbonylamino]propionyl-4-diphenylmethylpiperazine] | 0.19 |
| 0.14 | 179 | 25 |  | O=C(N[C@@H](CCCn1nnc(C(=O)O)c1C(=O)O)C(=O)N1CCN(C(c2ccccc2)c2ccccc2)CC1)c1cc2ccccc2[nH]1 [Compound 23-6, (S)-1-[5-(4,5-dicarboxy-1,2,3-triazol-1-yl)-2-(indol-2-yl)carbonylamino]valeryl-4-diphenylmethylpiperazine] |  |
| 0.07 | 43 | 3 |  | O=C(N[C@@H](CCCn1nncc1C(=O)O)C(=O)N1CCN(C(c2ccccc2)c2ccccc2)CC1)c1cc2ccccc2[nH]1 [Compound 28-3, (S)-1-[5-(5-carboxy-1,2,3-triazol-1-yl)-2-(indol-2-yl)carbonylamino]valeryl-4-diphenylmethylpiperazine] |  |
| 0.0043 | 13256 | 57 | 0.0043 | O=C(N[C@@H](CSc1ncccc1C(=O)O)C(=O)N1CCC(C(c2ccccc2)c2ccccc2)CC1)c1cc2ccccc2[nH]1 [Compound 2-6, (R)-4-diphenylmethyl-1-[3-(3-carboxypyridin-2-yl)thio-2-(indol-2-yl)carbonylamino)propionylpiperidine] | 0.06 |
| 0.009 | 7111 | 64 | 0.009 | O=C(N[C@@H](CSc1ncccc1C(=O)O)C(=O)N1CCN(C2c3ccccc3CCc3ccccc32)CC1)c1cc2ccccc2[nH]1 [Compound 19-5, (R)-1-[3-(3-carboxypyridin-2-yl)thio-2-(indol-2-yl)carbonylamino]propionyl-4-(10,11-dihydro-5H-dibenzo[a,d]cyclohepten-5-yl)piperazine] |  |
| 0.21 | 29 | 6 |  | O=C(N[C@@H](CSc1ccccc1C(=O)O)C(=O)N1CCN(C(c2ccccc2)c2ccccc2)CC1)c1cc2ccccc2[nH]1 [Compound 9-3, (R)-1-[3-(2-carboxyphenyl)thio-2-(indol-2-yl)carbonylamino]propionyl-4-diphenylmethylpiperazine] |  |
| 0.21 | 57 | 12 |  | O=C(N[C@@H](CCSc1ncccc1C(=O)O)C(=O)N1CCN(C(c2ccccc2)c2ccccc2)CC1)c1cc2ccccc2[nH]1 [Compound 25-7, (S)-1-[4-(3-carboxypyridin-2-yl)thio-2-(indol-2-yl)carbonylamino]butyryl-4-diphenylmethylpiperazine] |  |

Continued, molecule first:

| SMILES | IC50 [1, 4] [µM] | CCK-B/CCK-A [1] | IC50 [2] [µM] | IC50 [1, 5] [µM] | IC50 [3] [µM] |
| --- | --- | --- | --- | --- | --- |
| COc1ccc(C(c2ccc(OC)cc2)N2CCN(C(=O)[C@H](CSc3ncccc3C(=O)O)NC(=O)c3cc4ccccc4[nH]3)CC2)cc1 [Compound 7-4, (R)-4-bis(4-methoxyphenyl)methyl-1-[3-(3-carboxypyridin-2-yl)thio-2-(indol-2-yl)carbonylamino]propionylpiperazine] | 0.8 | 76 | 61 |  |  |
| O=C(N[C@@H](Cn1nnc(C(=O)O)c1C(=O)O)C(=O)N1CCN(C(c2ccccc2)c2ccccc2)CC1)c1cc2ccccc2[nH]1 [Compound 31-3, (S)-1-[3-(4,5-dicarboxy-1,2,3-triazol-1-yl)-2-(indol-2-yl)carbonylamino]propionyl-4-diphenylmethylpiperazine] |  |  |  |  | 0.032 |
| O=C(N[C@@H](CSc1ncccc1C(=O)O)C(=O)N1CCC(C(c2ccccc2)c2ccccc2)CC1)c1cc2cc(Cl)ccc2[nH]1 [Compound 20-2, (R)-1-[3-(3-carboxypyridin-2-yl)thio-2-(5-chloroindol-2-yl)carbonylamino]propionyl-4-diphenylmethylpiperidine] | 0.06 | > 16667 | > 1000 |  |  |
| O=C(N[C@@H](CSc1ncccc1C(=O)O)C(=O)N1CCN(C(c2ccccc2)c2ccccc2)CC1)c1cc2cc(O)ccc2[nH]1 [Compound 12-2, (R)-1-[3-(3-carboxypyridin-2-yl)thio-2-(5-hydroxyindol-2-yl)carbonylamino]propionyl-4-diphenylmethylpiperazine] | 0.005 | 8400 | 42 | 0.005 | 0.027 |
| COc1ccc2[nH]c(C(=O)N[C@@H](CSc3ncccc3C(=O)O)C(=O)N3CCC(C(c4ccccc4)c4ccccc4)CC3)cc2c1 [Compound 21-2, (R)-1-[3-(3-carboxypyridin-2-yl)thio-2-(5-methoxyindol-2-yl)carbonylamino]propionyl-4-diphenylmethylpiperidine] | 0.013 | 130770 | 1700 |  |  |
| O=C(O)c1cn(CCC[C@H](NC(=O)c2cc3ccccc3[nH]2)C(=O)N2CCN(C(c3ccccc3)c3ccccc3)CC2)nn1 [Compound 29-2, (S)-1-[5-(4-carboxy-1,2,3-triazol-1-yl)-2-(indol-2-yl)carboxyamino]valeryl-4-diphenylmethylpiperazine] | 1.5 | 17 | 26 |  |  |
| O=C(N[C@@H](Cn1nncc1C(=O)O)C(=O)N1CCN(C(c2ccccc2)c2ccccc2)CC1)c1cc2ccccc2[nH]1 [Compound 32-2, (S)-4-diphenylmethyl-1-[3-(5-carboxy-1,2,3-triazol-1-yl)-2-(indol-2-yl)carbonylamino]propionylpiperazine] |  |  |  |  | 0.036 |
